Laboratory results from patent publication US8609852B2, “Thiazolyl mGluR5 antagonists and methods for their use” (Merck Sharp & Dohme Corp., priority 2004, dated 2013).

What was measured:
[1] = target: hmGluR5a receptor (Homo sapiens (Human), UniProt P41594); test: Calcium Flux Assay; format: cell-based; details: hmGluR5a/L38-20 cells, glutamate-evoked [Ca2+]i
Method: The activity of compounds was examined against the hmGluR5a receptor stably expressed in mouse fibroblast Ltk− cells (the hmGluR5a/L38-20 cell line). See generally Daggett et al., Neuropharmacology 34:871-886 (1995). Receptor activity was detected by changes in intracellular calcium ([Ca^2+]i) measured using the fluorescent calcium-sensitive dye, fura-2. hmGluR5a/L38-20 cells were plated onto 96-well plates, and loaded with 3 µM fura-2 for 1 h. Unincorporated dye was washed from the cells, and the cell plate was transferred to a custom-built 96-channel fluorimeter (SIBIA-SAIC, La Jolla, Calif.) which is integrated into a fully automated plate handling and liquid delivery system. Cells were excited at 350 and 385 nm with a xenon source combined with optical filters. Emitted light was collected from the sample through a dichroic mirror and a 510 nm interference filter and directed into a cooled CCD camera (Princeton Instruments). Image pairs were captured approximately every 1 s, and ratio images were generated after background subtraction. After a basal reading of 20 s, an EC80 concentration of glutamate ([…]) was added to the well, and the response evaluated for another 60 s. The glutamate-evoked increase in [Ca^2+]i in the presence of the screening compound was compared to the response of glutamate alone (the positive control).

[2] = target: metabotropic glutamate receptor subtype 5 (Rattus norvegicus (Rat), UniProt P31424); test: [3H]-mGluR5 Antagonist Binding to Rodent Brain Membranes
Method: In accordance with Anderson J J, Rao S P, Rowe B, Giracello D R, Holtz G, Chapman D F, Tehrani L, Bradbury M J, Cosford N D, Varney M A, [^3H]Methoxymethyl-3-[(2-methyl-1,3-thiazol-4-yl)ethynyl]pyridine binding to metabotropic glutamate receptor subtype 5 in rodent brain: in vitro and in vivo characterization. J Pharmacol Exp Ther. 2002 December; 303 (3):1044-51, membranes were prepared (as described in Ransom R W and Stec N L (1988) Cooperative modulation of [^3H]MK-801 binding to the N-methyl-D-aspartate receptor-ion channel complex by L-glutamate, glycine, and polyamines. J Neurochem 51:830-836) using whole rat brain, or mGlu5^+/+ or mGlu5^−/− whole mouse brain.
Binding assays were performed as described in Schaffhauser H, Richards J G, Cartmell J, Chaboz S, Kemp J A, Klingelschmidt A, Messer J, Stadler H, Woltering T and Mutel V (1998) In vitro binding characteristics of a new selective group II metabotropic glutamate receptor radioligand, [^3H]LY354740, in rat brain. Mol Pharmacol 53:228-233) at room temperature with slight modifications. Briefly, membranes were thawed and washed once with assay buffer (50 mM HEPES, 2 mM MgCl2, pH 7.4), followed by centrifugation at 40,000×g for 20 min. The pellet was resuspended in assay buffer and briefly homogenized with a Polytron.
For protein linearity experiments, increasing concentrations of membrane protein were added to 96-well plates in triplicate and binding was initiated by addition of 20 nM [^3H]methoxymethyl-3-[(2-methyl-1,3-thiazol-4-yl)ethynyl]pyridine. The assay was incubated for 2 h and non-specific binding was determined using 10 μM MPEP. The binding was terminated by rapid filtration through glass-fiber filters (Unifilter-96 GF/B plate, Packard) using a 96-well plate Brandel cell harvester. Following addition of scintillant, the radioactivity was determined by liquid scintillation spectrometry. Protein measurements were performed by BioRad-DC Protein assay using bovine serum albumin as the standard.
Saturation binding experiments were performed in triplicate with increasing concentrations of [^3H]methoxymethyl-3-[(2-methyl-1,3-thiazol-4-yl)ethynyl]pyridine (1 pM to 100 nM). The time course of association was measured by the addition of 10 nM [^3H]methoxymethyl-3-[(2-methyl-1,3-thiazol-4-yl)ethynyl]pyridine to the membranes at different time points (0-240 min), followed by filtration. Dissociation was measured by the addition of 100 μM unlabeled methoxymethyl-3-[(2-methyl-1,3-thiazol-4-yl)ethynyl]pyridine at different time points to membranes previously incubated for 3 h with 10 nM [^3H]methoxymethyl-3-[(2-methyl-1,3-thiazol-4-yl)ethynyl]pyridine. For competition experiments, 100 μg membrane protein and 10 nM [^3H]methoxymethyl-3-[(2-methyl-1,3-thiazol-4-yl)ethynyl]pyridine was added to wells containing increasing concentration of the test compound in duplicate (methoxymethyl-3-[(2-methyl-1,3-thiazol-4-yl)ethynyl]pyridine or MPEP). [^3H]-3-Methoxy-5-(pyridin-2-ylethynyl)pyridine may also be used as the radioligand in the procedure described above. (See, Cosford, N. D. P.; Roppe, J.; Tehrani, L.; Seiders, T. J.; Schweiger, E. J. et al. [3H]-Methoxymethyl-MTEP and [3H]-methoxy-PEPy): Potent and selective radioligands for the Metabotropic Glutamate Subtype 5 (mGlu5) Receptor. Bioorg. Med. Chem. Lett. 2003, 13, 351-354.)

[3] = target: hmGluR5 (Homo sapiens (Human), UniProt P41594); test: Phosphatidylinositol Hydrolysis (IP) Assay; format: cell-based; details: hmGluR5/L38-20 cells
Method: Inositol phophate assays were performed as described by Berridge et al. (1982) (Berridge et al, (1982) Biochem. J. 206: 587-5950; and Nakajima et al., J. Biol. Chem. 267:2437-2442 (1992)) with slight modifications. Mouse fibroblast Ltk cells expressing hmGluR5 (hmGluR5/L38-20 cells) were seeded in 24-well plates at a density of 8×10^5 cells/well. […] of [^3H]-inositol (Amersham PT6-271; Arlington Heights, Ill.; specific activity=17.7 Ci/mmol) was added to each well and incubated for 16 h at 37° C. Cells were washed twice and incubated for 45 min in 0.5 ml of standard Hepes buffered saline buffer (HBS; 125 mM NaCl, 5 mM KCl, […] MgS04, 1.8 mM CaCl2, 20 mM HEPES, 6 mM glucose, pH to 7.4). The cells were washed with HBS containing 10 mM LiCl, and 400 ill buffer added to each well. Cells were incubated at 37° C. for 20 min. For testing, […], of 10× compounds used in the practice of the invention [made in HBS/LiCl (100 mM)] was added and incubated for 10 minutes. Cells were activated by the addition of […] glutamate, and the plates left for 1 hour at 37° C.
The incubations were terminated by the addition of 1 mL ice-cold methanol to each well. In order to isolate inositol phosphates (IPs), the cells were scraped from wells, and placed in numbered glass test tubes. […] Scintillant was added to each vial, and the vials shaken, and counted in a scintillation counter after 2 hours. […]

[4] = aqueous medium

metabotropic glutamate receptor subtype 5, sequence (P31424 21-1203): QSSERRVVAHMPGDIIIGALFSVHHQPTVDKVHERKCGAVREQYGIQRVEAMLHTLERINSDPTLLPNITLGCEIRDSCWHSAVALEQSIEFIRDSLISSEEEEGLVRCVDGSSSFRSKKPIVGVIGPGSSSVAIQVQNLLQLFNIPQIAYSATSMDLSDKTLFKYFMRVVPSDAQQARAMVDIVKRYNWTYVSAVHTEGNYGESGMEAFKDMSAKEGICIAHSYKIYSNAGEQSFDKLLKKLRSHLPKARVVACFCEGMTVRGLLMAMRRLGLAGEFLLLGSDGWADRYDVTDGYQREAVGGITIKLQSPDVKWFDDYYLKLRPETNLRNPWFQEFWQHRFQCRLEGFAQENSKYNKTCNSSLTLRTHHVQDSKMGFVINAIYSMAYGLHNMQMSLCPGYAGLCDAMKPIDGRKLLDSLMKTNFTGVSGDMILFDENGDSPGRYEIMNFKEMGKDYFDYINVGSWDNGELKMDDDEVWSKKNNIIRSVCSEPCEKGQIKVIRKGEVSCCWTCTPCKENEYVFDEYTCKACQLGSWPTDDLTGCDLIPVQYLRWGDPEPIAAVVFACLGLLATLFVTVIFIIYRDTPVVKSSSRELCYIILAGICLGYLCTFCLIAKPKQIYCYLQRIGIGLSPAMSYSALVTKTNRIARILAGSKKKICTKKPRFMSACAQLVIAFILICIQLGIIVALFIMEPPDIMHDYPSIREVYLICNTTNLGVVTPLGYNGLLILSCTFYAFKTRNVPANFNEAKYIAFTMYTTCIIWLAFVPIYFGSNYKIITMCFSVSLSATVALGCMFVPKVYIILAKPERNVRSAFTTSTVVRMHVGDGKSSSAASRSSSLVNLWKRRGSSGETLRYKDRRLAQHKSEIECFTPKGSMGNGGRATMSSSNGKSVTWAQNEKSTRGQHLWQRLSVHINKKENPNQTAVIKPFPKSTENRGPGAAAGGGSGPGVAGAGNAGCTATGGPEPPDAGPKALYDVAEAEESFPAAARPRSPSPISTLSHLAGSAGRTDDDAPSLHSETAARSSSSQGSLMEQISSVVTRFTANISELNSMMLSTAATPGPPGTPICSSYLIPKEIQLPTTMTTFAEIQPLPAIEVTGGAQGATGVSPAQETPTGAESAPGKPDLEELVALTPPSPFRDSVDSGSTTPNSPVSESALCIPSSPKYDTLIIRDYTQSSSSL
hmGluR5a receptor, sequence (P41594 other isoform, or with tags, fused parts or gaps): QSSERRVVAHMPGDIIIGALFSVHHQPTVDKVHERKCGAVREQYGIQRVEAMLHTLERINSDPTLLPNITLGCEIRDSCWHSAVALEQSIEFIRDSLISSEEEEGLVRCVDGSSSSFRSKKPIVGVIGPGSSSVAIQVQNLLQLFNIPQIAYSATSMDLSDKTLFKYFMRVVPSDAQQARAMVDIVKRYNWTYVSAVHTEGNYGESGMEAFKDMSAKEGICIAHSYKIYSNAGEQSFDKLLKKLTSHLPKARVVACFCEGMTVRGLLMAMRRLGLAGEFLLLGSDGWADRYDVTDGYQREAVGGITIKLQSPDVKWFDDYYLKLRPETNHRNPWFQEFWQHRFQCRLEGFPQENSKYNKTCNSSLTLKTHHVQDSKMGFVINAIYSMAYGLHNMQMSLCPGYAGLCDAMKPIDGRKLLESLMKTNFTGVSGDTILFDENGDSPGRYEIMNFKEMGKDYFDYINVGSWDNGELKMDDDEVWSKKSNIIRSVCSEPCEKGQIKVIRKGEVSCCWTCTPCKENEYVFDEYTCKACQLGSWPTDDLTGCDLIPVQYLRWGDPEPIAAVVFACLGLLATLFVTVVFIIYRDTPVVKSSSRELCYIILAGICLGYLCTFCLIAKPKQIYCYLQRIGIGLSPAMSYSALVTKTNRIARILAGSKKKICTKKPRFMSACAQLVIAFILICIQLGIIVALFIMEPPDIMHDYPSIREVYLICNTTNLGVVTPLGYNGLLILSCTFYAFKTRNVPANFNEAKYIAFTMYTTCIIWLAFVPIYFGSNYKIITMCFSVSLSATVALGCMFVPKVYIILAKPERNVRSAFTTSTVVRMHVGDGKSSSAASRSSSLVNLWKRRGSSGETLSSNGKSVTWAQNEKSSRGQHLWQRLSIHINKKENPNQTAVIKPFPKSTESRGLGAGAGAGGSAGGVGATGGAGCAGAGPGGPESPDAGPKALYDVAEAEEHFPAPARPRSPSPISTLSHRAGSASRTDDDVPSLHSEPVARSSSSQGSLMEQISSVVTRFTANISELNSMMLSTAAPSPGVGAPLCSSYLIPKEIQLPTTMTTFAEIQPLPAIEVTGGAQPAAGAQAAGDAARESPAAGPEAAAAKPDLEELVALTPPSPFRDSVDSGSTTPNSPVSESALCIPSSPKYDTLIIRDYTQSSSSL
hmGluR5, sequence (P41594 other isoform, or with tags, fused parts or gaps): as above

Row | SMILES | IC50 [1] | Ki [2] | IC50 [3] | solubility [4]
1 | Cc1nc(C#Cc2ccc(-n3ccc4ccncc43)nc2)cs1 [Example 18, 1-{5-[(2-methyl-1,3-thiazol-4-yl)ethynyl]pyridin-2-yl}-1H-pyrrolo[2,3-c]pyridine] | 4.9 nM | 19.3 nM | 2 nM | –
2 | Cc1nc(C#Cc2ccc(-c3cc(F)cc(C#N)c3)nc2)cs1 [Example 1, 3-fluoro-5-{5-[(2-methyl-1,3-thiazol-4-yl)ethynyl]pyridin-2-yl}benzonitrile] | 3 nM | 20 nM | 33 nM | –
3 | Cc1nc(C#Cc2cncc(-c3ccc(CO)cc3)c2)cs1 [Example 65] | 6 nM | 8 nM | – | –
4 | CCC(CC)Nc1ccc(C#Cc2csc(C)n2)cn1 [Example 66] | 5 nM | 9 nM | – | –
5 | Cc1nc(C#Cc2ccc(C3CCCC3)nc2)cs1 [Example 75] | 4 nM | 4 nM | – | –
6 | Cc1nc(C#Cc2cncc(N(C)c3cccnc3)c2)cs1 [Example 82] | 3 nM | 2 nM | – | –
7 | C(#Cc1nccs1)c1ccccc1.Cc1ccc(S(=O)(=O)O)cc1 [2-(phenylethynl)-1,3-thiazole] | – | – | – | soluble in aqueous medium
8 | Cc1nc(C#Cc2cnc(O[C@@H](C)c3ccccc3)nc2)cs1 [Example 95] | 8 nM | 9 nM | – | –
9 | Cc1nc(C#Cc2ccc(N3CCCC3)nc2)cs1 [Example 69] | 5 nM | 14 nM | – | –
10 | Cc1nc(C#Cc2ccc(-c3cccc(C#N)c3)nc2)cs1 [Example 70] | 5 nM | 5 nM | – | –
11 | Cc1nc(C#Cc2cnc(N3CCCC3)nc2)cs1 [Example 97] | 5 nM | 13 nM | – | –
12 | Cc1nc(C#Cc2cncc(-c3cccc(Cl)c3)c2)cs1 [Example 43] | 11 nM | 0.65 nM | – | –
13 | Cc1nc(C#Cc2ccc(-c3cccc(CO)c3)nc2)cs1 [Example 56] | 7 nM | 13 nM | – | –
14 | CCC(C)Nc1ncc(C#Cc2csc(C)n2)cn1 (centres unmarked) [Example 94] | 9 nM | 6 nM | – | –
15 | Cc1nc(C#Cc2ccc(NC3CCC3)nc2)cs1 [Example 42] | 11 nM | 17 nM | – | –

More lines, main results first:

Row | IC50 [1] | Ki [2] | SMILES | IC50 [3] | solubility [4]
16 | 1.4 nM | 9 nM | Cc1nc(C#Cc2cnc(OC(C)C)nc2)cs1 [Example 25, 2-isopropoxy-5-[(2-methyl-1,3-thiazol-4-yl)ethynyl]pyrimidine] | – | –
17 | 2.2 nM | 2.3 nM | Cc1nc(C#Cc2ccc(C3CCCCC3)nc2)cs1 [Example 30, 2-cyclohexyl-5-[(2-methyl-1,3-thiazol-4-yl)ethynyl]pyridine] | – | –
18 | 1.2 nM | 0.9 nM | Cc1nc(C#Cc2cnc(NC(C)(C)C)nc2)cs1 [Example 22, N-(tert-butyl)-5-[(2-methyl-1,3-thiazol-4-yl)ethynyl]pyrimidin-2-amine] | – | –
19 | 3 nM | 16 nM | Cc1nc(C#Cc2ccc(Oc3ccccc3)nc2)cs1 [Example 79] | – | –
20 | 2 nM | 12 nM | CCC(C)Sc1ccc(C#Cc2csc(C)n2)cn1 (centres unmarked) [Example 83] | – | –
21 | 1 nM | 0.9 nM | COc1ccccc1-c1ccc(C#Cc2csc(C)n2)cn1 [Example 8, 2-(2-methoxyphenyl)-5-[(2-methyl-1,3-thiazol-4-yl)ethynyl]pyridine] | – | –
22 | 2 nM | 1 nM | Cc1nc(C#Cc2cncc(-c3cccc(C#N)c3)c2)cs1 [Example 85] | – | –
23 | 3 nM | 1.4 nM | C=Cc1cncc(C#Cc2csc(C)n2)c1 [Example 78] | – | –
24 | 1 nM | 1.4 nM | Cc1nc(C#Cc2ccc(N3CCCC3C)nc2)cs1 (centres unmarked) [Example 20, 2-(2-methylpyrrolidin-1-yl)-5-[(2-methyl-1,3-thiazol-4-yl)ethynyl]pyridine] | – | –
25 | 2.9 nM | 12.2 nM | Cc1nc(C#Cc2ccc(C(C)(C)C)nc2)cs1 [Example 31, 2-tert-butyl-5-[(2-methyl-1,3-thiazol-4-yl)ethynyl]pyridine] | – | –
26 | 1 nM | 2 nM | Cc1nc(C#Cc2ccc(-c3ccccc3F)nc2)cs1 [Example 2, 2-(2-fluorophenyl)-5-[(2-methyl-1,3-thiazol-4-yl)ethynyl]pyridine] | – | –
27 | 2.8 nM | 33 nM | Cc1nc(C#Cc2cnc(-n3ccc4ccncc43)nc2)cs1 [Example 99] | – | –
28 | 0.8 nM | 7.5 nM | CSc1ccccc1-c1ncc(C#Cc2csc(C)n2)cn1 [Example 14, 5-[(2-methyl-1,3-thiazol-4-yl)ethynyl]-2-[2-(methylthio)phenyl]pyrimidine] | – | –
29 | 0.5 nM | 10 nM | Cc1nc(C#Cc2cnc(SC(C)(C)C)nc2)cs1 [Example 29, 2-(tert-butylthio)-5-[(2-methyl-1,3-thiazol-4-yl)ethynyl]pyrimidine] | – | –
30 | 2 nM | 7 nM | Cc1nc(C#Cc2cncc(-c3ccccc3CO)c2)cs1 [Example 84] | – | –
31 | 1 nM | 1 nM | Cc1nc(C#Cc2cncc(Oc3cccnc3)c2)cs1 [Example 91] | – | –
32 | 1.7 nM | 0.9 nM | Cc1nc(C#Cc2ccc(SC(C)(C)C)nc2)cs1 [Example 28, 2-(tert-butylthio)-5-[(2-methyl-1,3-thiazol-4-yl)ethynyl]pyridine] | – | –
